According to patent publication US20230031406A1, “COMPOUNDS AND COMPOSITIONS FOR TREATING CONDITIONS ASSOCIATED WITH NLRP ACTIVITY” (Novartis AG, priority 2018, published 2023):

These compounds were tested on PMA-differentiated THP-1 cells (assay: IL-1β production in PMA-differentiated THP-1 cells stimulated with gramicidin (hTHP-1 assay containing 2% fetal bovine serum; Procedures 1 and 2)). Conditions: Homo sapiens, THP-1, Table B1; 2% fetal bovine serum; class symbols; read-out: Average IC50 of compounds in hTHP-1 assay: hTHP-1 IC50.
Type: cell-based, human
Summary of the method: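 IL-1β release from PMA-differentiated THP-1 macrophage-like cells was triggered by 5 μM gramicidin for 2 h after 1 h compound exposure, then measured by HTRF.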

IC50	Compound
200 to 1000 nM	Cc1c(C2CC2)nc2c(c1NC(=O)N=S(N)(=O)c1cc(C(C)(C)O)cs1)CCC2 (stereo not shown) [Compound 175, N′-((2-cyclopropyl-3-methyl-6,7-dihydro-5H-cyclopenta[b]pyridin-4-yl)carbamoyl)-4-(2-hydroxypropan-2-yl)thiophene-2-sulfonimidamide]
1000 to 5000 nM	CC(C)(O)c1nc(S(N)(=O)=NC(=O)Nc2c3c(nc4c2CCC4)CCC3)cs1 (single isomer, unassigned) [Compound 154a, (R) or (S)-N′-((1,2,3,5,6,7-hexahydrodicyclo-penta[b,e]pyridin-8-yl)carbamoyl)-2-(2-hydroxypropan-2-yl)thiazole-4-sulfonimidamide]
1000 to 5000 nM	CC(C)c1csc(S(N)(=O)=NC(=O)Nc2c3c(nc4c2CCC4C)C(C)CC3)c1 (stereo not shown) [Compound 123, N′-((3,5-dimethyl-1,2,3,5,6,7-hexahydrodicyclopenta[b,e]pyridin-8-yl)carbamoyl)-4-isopropylthiophene-2-sulfonimidamide]
1000 to 5000 nM	Cn1nc(S(N)(=O)=NC(=O)Nc2c3c(nc4c2CCC4)CCC3)cc1C(C)(C)O (stereo not shown) [Compound 158, N-((1,2,3,5,6,7-hexahydrodicyclopenta[b,e]pyridin-8-yl)carbamoyl)-5-(2-hydroxypropan-2-yl)-1-methyl-1H-pyrazole-3-sulfonimidamide]

Same assay, conditions: Homo sapiens, THP-1, Table B2; 2% fetal bovine serum; class symbols; read-out: hTHP-1 IC50

IC50	Compound
5000 to 30000 nM	Cc1cn(C(C)C)nc1S(N)(=O)=NC(=O)Nc1c2c(nc3c1CCC3)CCC2 (single isomer, unassigned) [Compound 687b, (R) or (S)-N′-((1,2,3,5,6,7-hexahydrodicyclopenta [b,e]pyridin-8-yl)carbamoyl)-1-isopropyl-4-methyl-1H-pyrazole-3-sulfonimidamide]
1000 to 5000 nM	NS(=O)(=NC(=O)Nc1c2c(nc3c1CCC3)CCC2)c1ccn(CC(F)(F)F)n1 (single isomer, unassigned) [Compound 685b, (R) or (S)-N′-((1,2,3,5,6,7-hexahydrodicyclopenta [b,e]pyridin-8-yl)carbamoyl)-1-(2,2,2-trifluoroethyl)-1H-pyrazole-3-sulfonimidamide]
5000 to 30000 nM	COCc1nc(C(C)(C)O)sc1S(N)(=O)=NC(=O)Nc1c2c(nc3c1CCC3)CCC2 (single isomer, unassigned) [Compound 689b, (R) or (S)-N′-((1,2,3,5,6,7-hexahydrodicyclopenta [b,e]pyridin-8-yl)carbamoyl)-2-(2-hydroxypropan-2-yl)-4-(methoxymethyl) thiazole-5-sulfonimidamide]
5000 to 30000 nM	CCC1CCc2c1nc1c(c2NC(=O)N=S(N)(=O)c2ccn(C(F)F)n2)CCC1 (single isomer, unassigned) [Compound 668c, (R, R) or (R, S) or (S, R) or (S, S)-1-(Difluoromethyl)-N′-((3-ethyl-1,2,3,5,6,7-hexahydrodicyclopenta [b,e]pyridin-8-yl)carbamoyl)-1H-pyrazole-3-sulfonimidamide]
40 to 200 nM	C[C@@H]1CCc2c1nc1c(c2NC(=O)N=S(N)(=O)c2nn(C(F)F)cc2F)CCC1 (stereo partly shown) [Compound 718a]
200 to 1000 nM	Cc1nc2c(c(NC(=O)N=S(N)(=O)c3cc(C(C)(C)O)cs3)c1C1CC1)CCC2 (stereo not shown) [Compound 623, N′-((3-cyclopropyl-2-methyl-6,7-dihydro-5H-cyclopenta[b]pyridin-4-yl)carbamoyl)-4-(2-hydroxypropan-2-yl)thiophene-2-sulfonimidamide]
200 to 1000 nM	CC(C)c1nc2c(cc1NC(=O)N=[S@](N)(=O)c1cnc(C(C)(C)O)s1)CCC2 [Compound 601a]

Same assay, conditions: Homo sapiens, THP-1, Table B2; 2% fetal bovine serum; numeric bounds; read-out: hTHP-1 IC50

IC50	Compound
> 30000 nM	CC(C)(O)c1ccc(S(N)(=O)=NC(=O)Nc2c3c(nc4c2CCC4)CCC3)cc1 (single isomer, unassigned) [Compound 633a, (S) or (R)-N′-((1,2,3,5,6,7-hexahydrodicyclopenta [b,e]pyridin-8-yl)carbamoyl)-4-(2-hydroxypropan-2-yl)benzene-sulfonimidamide]
> 30000 nM	CC(C)(O)c1csc(S(N)(=O)=NC(=O)Nc2cc(CC(F)(F)F)nc3c2CCC3)c1 (single isomer, unassigned) [Compound 607a, (S) or (R)-4-(2-Hydroxypropan-2-yl)-N′-((2-(2,2,2-trifluoroethyl)-6,7-dihydro-5H-cyclopenta[b]pyridin-4-yl)carbamoyl) thiophene-2-sulfonimidamide]
> 30000 nM	CC(C)n1cc(CO)c(S(N)(=O)=NC(=O)Nc2c3c(nc4c2CCC4(C)C)CCC3)n1 (single isomer, unassigned) [Compound 682a, (S) or (R)-N′-((3,3-dimethyl-1,2,3,5,6,7-hexahydrodicyclopenta [b,e]pyridin-8-yl)carbamoyl)-4-(hydroxymethyl)-1-isopropyl-1H-pyrazole-3-sulfonimidamide]

Same assay, conditions: Homo sapiens, THP-1, Table B3; hTHP-1 assay, 2% fetal bovine serum; class symbols; read-out: IC50

IC50	Compound
40 to 200 nM	C[C@H](O)c1csc([S@](N)(=O)=NC(=O)Nc2c3c(nc4c2CC[C@H]4C)CCC3)c1 (single isomer, unassigned) [Example 664, (R)-4-((S) or (R)-1-hydroxyethyl)-N′-(((R)-3-methyl-1,2,3,5,6,7-hexahydrodicyclopenta[b,e]pyridin-8-yl)carbamoyl) thiophene-2-sulfonimidamide]
200 to 1000 nM	Cc1nc2c(c(NC(=O)N=S(N)(=O)c3cc(C(C)(C)O)cs3)c1C(F)(F)F)CCC2 (stereo not shown) [Example 566, 4-(2-Hydroxypropan-2-yl)-N′-((2-methyl-3-(trifluoromethyl)-6,7-dihydro-5H-cyclopenta[b]pyridin-4-yl)carbamoyl)thiophene-2-sulfonimidamide]
1000 to 5000 nM	CCc1c(CC(F)(F)F)nc2c(c1NC(=O)N=S(N)(=O)c1sc(C(C)(C)O)cc1F)CCC2 (stereo not shown) [Example 594, N′-((3-ethyl-2-(2,2,2-trifluoroethyl)-6,7-dihydro-5H-cyclopenta[b]pyridin-4-yl)carbamoyl)-3-fluoro-5-(2-hydroxypropan-2-yl)thiophene-2-sulfonimidamide]

Same assay, conditions: Homo sapiens, THP-1, Table B4; 2% fetal bovine serum; class symbols; read-out: hTHP-1 IC50

IC50	Compound
200 to 1000 nM	CC(C)n1cc(F)c(S(N)(=O)=NC(=O)Nc2c3c(nc4c2CCC4)CCC3)n1 (stereo not shown) [Example 750, 4-Fluoro-N′-((1,2,3,5,6,7-hexahydrodicyclopenta[b,e]pyridin-8-yl)carbamoyl)-1-isopropyl-1H-pyrazole-3-sulfomidamide]

Same assay, conditions: Table B2; 2% fetal bovine serum; class symbols; read-out: hTHP-1 IC50

IC50	Compound
5000 to 30000 nM	CCn1cc(Cl)c(S(N)(=O)=NC(=O)Nc2c(C)c(C(F)(F)F)nc3c2CCC3)n1 (single isomer, unassigned) [Compound 729a, (S) or (R)-4-Chloro-1-ethyl-N′-((3-methyl-2-(trifluoromethyl)-6,7-dihydro-5H-cyclopenta[b]pyridin-4-yl)carbamoyl)-1H-pyrazole-3-sulfonimidamide]
5000 to 30000 nM	Cc1c(C2CC2)nc2c(c1NC(=O)N=S(N)(=O)c1nc(C(C)(C)O)cs1)CCC2 (single isomer, unassigned) [Compound 626a]
5000 to 30000 nM	CCc1c(C(F)(F)F)nc2c(c1NC(=O)N=S(N)(=O)c1sc(C(C)(C)O)cc1F)CCC2 (single isomer, unassigned) [Compound 611a, (S) or (R)-N′-((3-ethyl-2-(trifluoromethyl)-6,7-dihydro-5H-cyclopenta[b]pyridin-4-yl)carbamoyl)-3-fluoro-5-(2-hydroxypropan-2-yl)thiophene-2-sulfonimidamide]

Same assay, conditions: Table B3; hTHP-1 assay, 2% fetal bovine serum; class symbols; read-out: IC50

IC50	Compound
< 8 nM	CCn1cc(F)c(S(N)(=O)=NC(=O)Nc2c3c(nc4c2CCC4(C)C)CCC3)n1 (single isomer, unassigned) [Example 715, (R) or (S)-N′-((3,3-dimethyl-1,2,3,5,6,7-hexahydrodicyclopenta[b,e]pyridin-8-yl)carbamoyl)-1-ethyl-4-fluoro-1H-pyrazole-3-sulfonimidamide]
